By EC50 is commonly meant the midpoint of the concentration-response curve.

IC50 and EC50 data for one compound are collected here from patent publication US7772183B2 (Bristol-Myers Squibb Company, priority 2005, dated 2010).

Like-named read-outs stand apart in the source and are kept apart here.

The target in experiment [1] is T1, porcine pancreatic elastase (PPE) (Sus scrofa, UniProt P00772).
T1 construct: purchased Sigma or EMDbiosciences
Put plainly: Specificity assay, pancreatic elastase. It counts as biochemical. The note with it: read-out: PPE activity in the specificity assays. As to the method: The specificities of compounds of the present disclosure were determined against a variety of serine proteases: human neutrophil elastase (HNE), porcine pancreatic elastase (PPE) and human pancreatic chymotrypsin and one cysteine protease: human liver cathepsin B. In all cases, a 96-well plate format protocol using colorimetric p-nitroaniline (pNA) substrate or fluorometric Amino-Methyl-Coumarin (AMC) substrate, specific for each enzyme was used as described previously (PCT Patent Application No. WO 00/09543) with some modifications. All enzymes were purchased from Sigma or EMDbiosciences while the substrates were from Bachem.
Each pNA assay included a 2 h enzyme-inhibitor pre-incubation at room temperature followed by addition of substrate and hydrolysis to ˜15% conversion as measured on a Spectramax Pro microplate reader. The cathepsin B assay was initiated by adding substrate to a 10 min enzyme-inhibitor pre-incubation at room temperature, and the assay plate measured immediately using the Cytofluor Series 4000. Compound concentrations varied from 100 to 0.4 μM depending on their potency.
The final conditions for each assay were as follows: […]
The percentage of inhibition was calculated using the formula: [1−((UVinh−UVblank)/(UVctl−UVblank))]×100 […]

The subject of experiment [2] is HCV replicon in HUH-7 cells. Put plainly: HCV replicon FRET assay. It counts as cell-based, Hepatitis C virus (strain 1b). The note with it: Hepatitis C virus. The essentials:
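HUH-7 cells stably carrying a genotype 1b subgenomic HCV replicon (NS3–NS5B) treated with compound for 4 days at 37° C, 0.5% DMSO final. Cytotoxicity (CC50) read by alamar Blue; cells then lysed with 10 μM FRET HCV protease peptide substrate and kinetically read (340/490 nm) for EC50.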
In general terms: In antiviral work, replicon cells carry a viral genome segment that copies itself.

T1 sequence (P00772 27-266): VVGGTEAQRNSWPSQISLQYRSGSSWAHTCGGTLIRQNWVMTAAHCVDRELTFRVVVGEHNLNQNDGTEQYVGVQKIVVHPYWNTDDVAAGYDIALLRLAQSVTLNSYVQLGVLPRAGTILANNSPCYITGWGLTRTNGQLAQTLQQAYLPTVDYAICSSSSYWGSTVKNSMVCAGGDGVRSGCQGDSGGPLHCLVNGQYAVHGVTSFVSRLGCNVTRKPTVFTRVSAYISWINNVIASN

On to `CC(C)(C)OC(=O)N[C@H]1CCCCC/C=C\[C@@H]2C[C@@]2(C(=O)NS(=O)(=O)C2CC2)NC(=O)[C@@H]2C[C@@H](OC(=O)c3ccc(C#N)cc3)CN2C1=O` [Compound 26, 18-(4-cyanobenzoyloxy)-14-tert-butoxycarbonylamino-4-cyclopropylsulfonylaminocarbonyl-2,15-dioxo-3,16-diazatricyclo-[14.3.0.0^4,6]-nonadec-7-ene], for which the IC50 in experiment [1] is more than 100000 nM. For the same compound, the EC50 in experiment [2] (96 h, HUH-7 replicon cells, 4 days, read-out: EC50 in the replicon FRET assay) is 7.3 nM; in experiment [2] (Huh-7, HCV replicon, for compounds tested, read-out: EC50 Range), less than 100 nM.
